Read-outs that look alike come from different tables or passages of the source. Blank lines part the entries; values can stand above or below the molecule they belong to.
Experiments:
[1] = control drugs; ref DrugBank; cited from earlier work
T.b. rhodesiense STIB900 = T.b. rhodesiense STIB900 assay, 72 h; type: cell-based; conditions: Trypanosoma brucei, read-out: IC50 T. bR (T.b. rhodesiense)
[2] = ref [8]; cited from earlier work
T.b. brucei [3] = system: T.b. brucei; design: method as in PMID 26258172; conditions: ref [53]; read-out: IC50 T.b. brucei, previously reported; cited from earlier work
[4] = system: T. cruzi Tulahuen strain parasites in 3T3 host cells; design: method as in PMID 28674055; conditions: liquid stocks; ref [16]; read-out: IC50 T. cruzi in the previous studies; cited from earlier work
T. cruzi [5] = system: T. cruzi; design: method as in PMID 25583723; conditions: 96 h; ref [54]; read-out: IC50 T. cruzi following 96 h incubation; cited from earlier work
[6] = system: T. cruzi Tulahuen strain parasites in 3T3 host cells; experiment: T. cruzi 48 h image-based assay; type: cell-based, Trypanosoma cruzi
[7] = system: T.b. brucei bloodstream 427 strain parasites; experiment: T.b. brucei 72 h REDOX-based (resazurin) viability assay; type: cell-based, Trypanosoma brucei brucei; conditions: for SI (T.b. brucei) HEK: selectivity index in relation to HEK293 cells; for SI (T.b. brucei) (HEP): selectivity index in relation to HEPG2 cells
T.b. gambiense STIB930 = T.b. gambiense STIB930 assay, 72 h; type: cell-based; conditions: Trypanosoma brucei, unit inferred, read-out: IC50 T. Bg STIB930 (T.b. gambiense)
T.b. brucei [8] = experiment: T.b. brucei temporal viability (time-kill) assay, 48 h, PrestoBlue; type: cell-based, Trypanosoma brucei brucei; conditions: for Emax: read-out: Emax 48 h T.b. brucei (converted); for IC50: read-out: IC50 48 h T.b. brucei
[9] = target: T. cruzi recombinant CYP51 (TcCYP51) (Trypanosoma cruzi, UniProt Q7Z1V1); experiment: biochemical
CYP1A2 = system: CYP1A2; design: method as in earlier work; conditions: Pathogen Box in vitro DMPK data; ref [10]; cited from earlier work
T. cruzi and T.b. brucei = experiment: Speed of action and cidality classification from temporal and wash off assays; type: cell-based, Trypanosoma cruzi, Trypanosoma brucei brucei; conditions: for Speed of Action (FA/SA): TC = T. cruzi, TBB = T.b. brucei; for Speed of Action (Table 5): prioritised compounds, Fast/Slow
T. cruzi [10] = experiment: T. cruzi compound wash off assay (48 h with compound, wash off, 72 h without); type: cell-based, Trypanosoma cruzi; conditions: T. cruzi; for Fold Change of IC50, wash off vs 48 h: IC50 from 48 h incubation to IC50 following wash off and further 72 h; for Emax / IC50: 48 h incubation, wash off, further 72 h; for IC50: read-out: IC50 Wash Off
T.b. brucei [11] = experiment: T.b. brucei temporal viability (time-kill) assay, 24 h, PrestoBlue; type: cell-based, Trypanosoma brucei brucei; conditions: for Emax: read-out: Emax 24 h T.b. brucei (converted); for IC50: read-out: IC50 24 h T.b. brucei
Description: Time-kill assays was undertaken as previously described, using the REDOX reagent PrestoBlue® [24]. […] Control compounds were added at the same concentrations at outlined for the resazurin-based assays.

HEPG2 cells = experiment: HEPG2 cytotoxicity assay; type: cell-based, human; conditions: HEPG2, 72 h, NA = not active, highest dose 79 µM unless given
[12] = in vivo, species not stated; ref [10]; cited from earlier work
HEK293 cells = experiment: HEK293 cytotoxicity assay; type: cell-based, human; conditions: HEK293, 72 h; NA = not active; highest dose 79 µM unless given
T. cruzi [13] = experiment: T. cruzi temporal image-based assay, 24 h exposure; type: cell-based, Trypanosoma cruzi; conditions: for IC50: NA = not active at given concentration, read-out: IC50 24 h T. cruzi
T. cruzi [14] = system: T. cruzi; design: method as in PMID 29016289; conditions: treated for 40 days; ref [4]; cited from earlier work
[15] = system: bovine peripheral blood mononuclear cells (PBMCs); design: method as in PMID 30771616; conditions: 24 h incubation; ref [55]; read-out: IC50 against bovine PBMCs; cited from earlier work
[16] = Trypanosoma cruzi, TULAHUEN, 48 h; read-out: Emax % (T. cruzi) (converted)
[17] = Trypanosoma cruzi, TULAHUEN, 48 h; read-out: IC50 (T. cruzi)
[18] = selectivity index in relation to 3T3 host cells; highest dose 3T3 73 µM
[19] = selectivity index in relation to HEK293 cells
[20] = selectivity index in relation to HEPG2 cells

Chain of T. cruzi recombinant CYP51 (TcCYP51) (Q7Z1V1 whole entry): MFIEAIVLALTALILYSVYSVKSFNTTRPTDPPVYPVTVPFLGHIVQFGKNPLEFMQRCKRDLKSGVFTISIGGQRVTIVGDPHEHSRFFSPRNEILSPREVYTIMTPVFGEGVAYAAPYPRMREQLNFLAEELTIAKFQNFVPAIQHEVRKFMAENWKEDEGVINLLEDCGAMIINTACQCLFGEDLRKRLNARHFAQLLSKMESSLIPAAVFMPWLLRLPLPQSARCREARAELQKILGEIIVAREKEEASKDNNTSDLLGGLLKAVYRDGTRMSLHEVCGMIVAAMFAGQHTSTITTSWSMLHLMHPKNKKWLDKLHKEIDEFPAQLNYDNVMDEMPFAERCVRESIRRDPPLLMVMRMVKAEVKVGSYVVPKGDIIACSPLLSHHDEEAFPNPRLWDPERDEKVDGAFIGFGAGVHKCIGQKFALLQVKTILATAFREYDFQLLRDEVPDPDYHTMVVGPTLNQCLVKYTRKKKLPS

SMILES: Nc1nc(N)nc(Nc2ccc([As]3SCC(CO)S3)cc2)n1 (stereo not drawn) [Melarsoprol, reference compound]
LogP [1]: 1.3
IC50 (T.b. rhodesiense STIB900; 72 h): 0.015 ± 0.004 µM
Fatality among patients in which encephalopathy develops [2]: 50%
Post-treatment reactive encephalopathy, share of all treated cases [2]: 5–10%

SMILES: CC(C)=CCC/C(C)=C/CNCCNC1C2CC3CC(C2)CC1C3 (stereo not drawn) [MMV687273]
IC50 (T.b. brucei [3]): 5 µM
IC50 [4]: 5.4 µM
IC50 (T. cruzi [5]): 0.5 to 1 µM
IC50 ([6]; Trypanosoma cruzi, TULAHUEN, 48 h, read-out: IC50 (T. cruzi)): 13 µM

SMILES: Cc1ccc(S(=O)(=O)Nc2ccc(CN3CCN(C(=O)c4cccc(C#N)c4)CC3)cc2)cc1 [MMV 689028]
Emax ([7]; Trypanosoma brucei, 72 h): 99%
IC50 ([7]; Trypanosoma brucei, 72 h): 0.12 ± 0.03 µM
SI (T.b. brucei) HEK [7]: >658 (>658)
SI (T.b. brucei) (HEP) [7]: >658 (>658)
IC50 (T.b. gambiense STIB930): 0.048 ± 0.0011 µM
Emax (T.b. brucei [8]; Trypanosoma brucei): 99%
IC50 (T.b. brucei [8]; Trypanosoma brucei): 0.11 ± 0.0032 µM
Inhibition of TcCYP51 (in words) ([9]; criterion: IC50 within a log difference to posaconazole): nor exhibited TcCYP51 activity
CYP1A2 induction (CYP1A2): induced CYP1A2 activity
Speed of Action (FA/SA) (T. cruzi and T.b. brucei): FA (Fast-acting (FA) = IC50 value can be determined following 24 h incubation, <10-fold difference in the IC50 value from 24 to 72 h)
Speed of Action (Table 5) (T. cruzi and T.b. brucei): Fast
Fold Change of IC50, wash off vs 48 h (T. cruzi [10]): 0.86 fold
Emax (T. cruzi [10]; Trypanosoma cruzi): 99%
IC50 (T. cruzi [10]; Trypanosoma cruzi): 0.39 ± 0.02 µM
Emax (T.b. brucei [11]; Trypanosoma brucei): 78%
IC50 (T.b. brucei [11]; Trypanosoma brucei): 0.72 ± 0.38 µM
IC50 (T.b. rhodesiense STIB900; STIB900, 72 h, unit inferred): 0.28 ± 0.011 µM
IC50 (HEP) (HEPG2 cells): no activity
Half-life [12]: 6.8 h
IC50 HEK (HEK293 cells): no activity
Emax [6, 16]: 100%
IC50 [6, 17]: 0.7 ± 0.13 µM
SI (T. cruzi) 3T3 [6, 18]: >104
SI (T. cruzi) HEK [6, 19]: >113 (>113)
SI (T. cruzi) (HEP) [6, 20]: >113 (>113)
Emax (T. cruzi [13]; Trypanosoma cruzi): 91%
IC50 (T. cruzi [13]; Trypanosoma cruzi): 1.1 ± 0.43 µM

SMILES: CC1(C)OB(O)c2cc(NC(=O)c3ccc(F)cc3C(F)(F)F)ccc21 [SCYX-7158]
Cure of mice infected with T. cruzi (T. cruzi [14]): 100%

SMILES: COc1ccc(S(=O)(=O)Nc2ccc(CN3CCN(C(=O)c4cccc(C#N)c4)CC3)cc2)cc1 [MMV 689029]
Emax ([7]; Trypanosoma brucei, 72 h): 99%
IC50 ([7]; Trypanosoma brucei, 72 h): 0.42 ± 0.053 µM
SI (T.b. brucei) HEK [7]: >188 (>188)
SI (T.b. brucei) (HEP) [7]: >188 (>188)
IC50 (T.b. gambiense STIB930): 0.4 ± 0.12 µM
Emax (T.b. brucei [8]; Trypanosoma brucei): 100%
IC50 (T.b. brucei [8]; Trypanosoma brucei): 0.4 ± 0.023 µM
IC50 ([9]; top concentration 100 µM): > 100 µM
CYP1A2 induction (CYP1A2): induced CYP1A2 activity
Speed of Action (FA/SA) (T. cruzi and T.b. brucei): FA (Fast-acting (FA) = IC50 value can be determined following 24 h incubation, <10-fold difference in the IC50 value from 24 to 72 h)
Speed of Action (Table 5) (T. cruzi and T.b. brucei): Fast
Fold Change of IC50, wash off vs 48 h (T. cruzi [10]): 0.73 fold
Emax (T. cruzi [10]; Trypanosoma cruzi): 98%
IC50 (T. cruzi [10]; Trypanosoma cruzi): 0.88 ± 0.056 µM
Emax (T.b. brucei [11]; Trypanosoma brucei): 89%
IC50 (T.b. brucei [11]; Trypanosoma brucei): 0.98 ± 0.34 µM
IC50 (T.b. rhodesiense STIB900; STIB900, 72 h, unit inferred): 0.63 ± 0.11 µM
Half-life [12]: 2.4 h
Emax [6, 16]: 100%
IC50 [6, 17]: 1.2 ± 0.067 µM
SI (T. cruzi) 3T3 [6, 18]: >61
SI (T. cruzi) HEK [6, 19]: >66 (>66)
SI (T. cruzi) (HEP) [6, 20]: >66 (>66)
Emax (T. cruzi [13]; Trypanosoma cruzi): 90%
IC50 (T. cruzi [13]; Trypanosoma cruzi): 3.7 ± 0.26 µM

IC50 (T. cruzi [10]): 0.13 ± 0.0029 µM
IC50 (T. cruzi [13]): 1.6 ± 0.064 µM
SMILES: O=C(Nc1ccc(F)c(-c2nc3ncc(-c4ccccc4)cc3[nH]2)c1)N1CCCC1 [MMV 688372]
IC50 [15]: 5.3 µM
Emax % (T.b. brucei) ([7]; 72 h): 99%
IC50 ([7]; 72 h): 0.014 ± 0.0024 µM
Emax 48 h T.b. brucei (T.b. brucei [8]): 100%
IC50 (T.b. brucei [8]): 0.013 ± 0.00032 µM
Speed of Action (FA/SA) (T. cruzi and T.b. brucei): SA (TC)
Speed of Action (Table 5) (T. cruzi and T.b. brucei): Slow
Emax 24 h T.b. brucei (T.b. brucei [11]): 83%
IC50 (T.b. brucei [11]): 0.034 ± 0.002 µM
IC50 (HEPG2 cells; read-out: IC50 (HEP) (converted)): 3.6 µM
IC50 (HEK293 cells): 1.8 ± 0.0502 µM
Emax % (T. cruzi) ([6]; 48 h): 99%
Emax % (T. cruzi) ([6]; 48 h; listed as MMV688372): > 95%
IC50 ([6]; 48 h; read-out: IC50 (T. cruzi)): 0.13 ± 0.0097 µM
Emax 24 h T. cruzi (T. cruzi [13]): 75%

Reference: PMC9317670, “Temporal and Wash-Out Studies Identify Medicines for Malaria Venture Pathogen Box Compounds with Fast-Acting Activity against Both Trypanosoma cruzi and Trypanosoma brucei” (Microorganisms, 2022)
